Type in all cases: cell-based
Experiment [1] relates to human fibrosarcoma cells HT-1080. Kind of experiment: Anti-fibrosis activity test: inhibition of proliferation of human fibrosarcoma cells HT-1080 (CCK-8). The note with it: Homo sapiens, HT-1080, 48 h, human fibrosarcoma cells HT-1080, CCK-8, 48 hours. Summed up: (§1)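 Read-out: absorbance at 450 nm after 2 h with CCK-8, following 48 h of compound exposure of adhered cells (2×10^4 cells/mL, 24 h attachment, 37° C, 5% CO2). Proliferation inhibition was taken relative to the blank control, and IC50 values were calculated from it.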

Experiment [2] concerns human embryonic lung fibroblast IMR-90. Description: Anti-fibrosis activity test: inhibition of proliferation of human embryonic lung fibroblast IMR-90 (CCK-8). The note with it: human embryonic lung fibroblast IMR-90, CCK-8, 48 hours. Summed up: as §1
Experiment [3] deals with cardiac fibroblast RAT-iCell-C002. Kind of experiment: Anti-fibrosis activity test: inhibition of proliferation of cardiac fibroblast RAT-iCell-C002 (CCK-8). The note with it: Cardiac fibroblast, 48 h, cardiac fibroblast RAT-iCell-C002, CCK-8, 48 hours. An outline of the steps:
as §1

Experiment [4] deals with human hepatic stellate cells LX-2. Kind of experiment: Anti-fibrosis activity test: inhibition of proliferation of human hepatic stellate cells LX-2 (CCK-8). The note with it: Homo sapiens, 48 h, human hepatic stellate cells LX-2, CCK-8, 48 hours. An outline of the steps:
as §1

The subject of a further experiment is NF-κB. Description: Immunological activity test: inhibition of NF-κB activity. The note with it: initial concentration of 30 μM; a/b isomers given as first/second symbol; read-out: IC50 (μM), inhibitory activity against NF-κB. Summed up:
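IC50 values come from further analysis of the data after an initial test at a single 30 μM concentration. Parthenolide served as the reference inhibitor.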

Experiment [5] concerns human dermal fibroblasts CCC-ESF-1. Kind of experiment: Anti-fibrosis activity test: inhibition of proliferation of human dermal fibroblasts CCC-ESF-1 (CCK-8). The note with it: Fibroblast; human dermal fibroblasts CCC-ESF-1, CCK-8, 48 hours. An outline of the steps: as §1
Experiment [6] concerns human lung fibroblasts HFL1. Description: Anti-fibrosis activity test: inhibition of proliferation of human lung fibroblasts HFL1 (CCK-8). The note with it: Homo sapiens, HFL1, 48 h, human lung fibroblasts HFL1, CCK-8, 48 hours. Summed up:
as §1

In another experiment the test system is BHK-21 cells. Description: Anti-fibrosis activity test: inhibition of BHK-21 cell proliferation (CCK-8). The note with it: Mesocricetus auratus, BHK-21, 48 h, CCK-8, 48 hours after administration. An outline of the steps: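 BHK-21 cells seeded at 2×10^4 cells/mL, allowed to adhere 24 h at 37° C, 5% CO2, then exposed to compounds at graded concentrations in triplicate for 48 h. CCK-8 added for 2 h and absorbance read at 450 nm; inhibition rate taken as (1−Ai/Ao)×100% and IC50 fitted.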

Experiment [7] concerns mouse macrophages (RAW264.7). Kind of experiment: Lipopolysaccharide-induced NO secretion in macrophages (Griess). The note with it: Mus musculus, RAW264.7, 24 h, RAW264.7, LPS 1 μg/ml, a/b isomers given as first/second symbol, read-out: IC50 (μM), inhibition of lipopolysaccharide-induced NO secretion in macrophages. Summed up:
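Absorbance at 548 nm after Griess reagent addition to culture supernatant gave NO content; inhibition rate was derived relative to blank control. Cells were mouse RAW264.7 macrophages exposed to compounds and 1 μg/ml LPS for 24 hours.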

Structures are written as SMILES.

On to `O=C1c2c(nc3ccccc3c2OCc2ccc(Br)cc2F)-c2cccn21` [Compound 606b, 9-((4-bromo-2-fluorobenzyl)oxy)-10H-pyrrolizino[1,2-b]quinolin-10-one], for which the IC50 (in general, the concentration at which inhibition is half-maximal) in [1] lay in the range of 0.05 to 5 mM; in [2], 0.05 to 5 mM; in [3], 0.05 to 5 mM; in experiment [4] it was 0.05 to 5 mM; in the experiment on NF-κB, 1 to 10 µM; in experiment [5], 0.05 to 5 mM. In addition, the IC50 in experiment [6] is 0.05 to 5 mM; in the experiment on BHK-21 cells, 0.05 to 5 mM; in experiment [7], 1 to 10 µM.

Turning to `O=C1c2c(n(Cc3cc(C(F)(F)F)cc(C(F)(F)F)c3)c3ccccc3c2=O)-c2cccn21` [Compound 607a, 4-(3,5-Bis(trifluoromethyl)benzyl)-9H-pyrrolizino[1,2-b]quinoline-9,10(4H)-dione], the IC50 in experiment [1] is 0.05 to 5 mM; in [2] it was 0.05 to 5 mM; in experiment [3], 0.05 to 5 mM; in [4], 0.05 to 5 mM; in the experiment on NF-κB it was 1 to 10 µM; in experiment [5], 0.05 to 5 mM. In addition, the IC50 in [6] was in the range of 0.05 to 5 mM; in the experiment on BHK-21 cells, 0.05 to 5 mM; in experiment [7] it was 0.1 to 1 µM.

For the compound `O=C1c2c(nc3ccccc3c2OCc2cc(C(F)(F)F)cc(C(F)(F)F)c2)-c2cccn21` [Compound 607b, 9-((3,5-bis(trifluoromethyl)benzyl)oxy)-10H-pyrrolizino[1,2-b]quinolin-10-one], the IC50 is 0.05 to 5 mM in experiment [1]; 0.05 to 5 mM in [2]; 0.05 to 5 mM in experiment [3]; 0.05 to 5 mM in [4]; 1 to 10 µM in the experiment on NF-κB; 0.05 to 5 mM in experiment [5]. Moreover, the results for the IC50 (in experiment [6]; with BHK-21 cells; in experiment [7]) were 0.05 to 5 mM, 0.05 to 5 mM and 1 to 10 µM, respectively.

On to `O=C1c2c(n(Cc3cccc(I)c3)c3ccccc3c2=O)-c2cccn21` [Compound 608a, 4-(3-Iodobenzyl)-9H-pyrrolizino[1,2-b]quinoline-9,10(4H)-dione], for which the IC50 in [1] was 0.05 to 5 mM; in experiment [2], less than 0.05 mM; in [3], 0.05 to 5 mM; in [4] it was 0.05 to 5 mM; with NF-κB, 1 to 10 µM; in experiment [5], 0.05 to 5 mM. Also, the IC50 in experiment [6] is 0.05 to 5 mM; in the experiment on BHK-21 cells it was less than 0.05 mM; in [7], 1 to 10 µM.

On to `O=C1c2c(nc3ccccc3c2OCc2cccc(I)c2)-c2cccn21` [Compound 608b, 9-((3-iodobenzyl)oxy)-10H-pyrrolizino[1,2-b]quinolin-10-one], for which the IC50 was 0.05 to 5 mM in [1]; 0.05 to 5 mM in experiment [2]; 0.05 to 5 mM in experiment [3]; 0.05 to 5 mM in experiment [4]; 1 to 10 µM with NF-κB; 0.05 to 5 mM in [5]. Moreover, the figures for the IC50 (in experiment [6]; in the experiment on BHK-21 cells; in experiment [7]) were 0.05 to 5 mM, 0.05 to 5 mM and 1 to 10 µM, respectively.

As to `Cc1cccc(Cn2c3c(c(=O)c4ccccc42)C(=O)n2cccc2-3)c1` [Compound 609a, 4-(3-Methylbenzyl)-9H-pyrrolizino[1,2-b]quinoline-9,10(4H)-dione], the IC50 in experiment [1] was 0.05 to 5 mM; in experiment [2] it was 0.05 to 5 mM; in experiment [3], 0.05 to 5 mM; in experiment [4], 0.05 to 5 mM; in the experiment on NF-κB it was 1 to 10 µM; in experiment [5] it was 0.05 to 5 mM. In addition, the IC50 fell in the range of 0.05 to 5 mM in experiment [6], 0.05 to 5 mM with BHK-21 cells and 0.1 to 1 µM in experiment [7].

Regarding `Cc1cccc(COc2c3c(nc4ccccc24)-c2cccn2C3=O)c1` [Compound 609b, 9-((3-methylbenzyl)oxy)-10H-pyrrolizino[1,2-b]quinolin-10-one], the IC50 in [1] was in the range of 0.05 to 5 mM; in experiment [2], 0.05 to 5 mM; in [3], 0.05 to 5 mM; in experiment [4], 0.05 to 5 mM; in the experiment on NF-κB, 1 to 10 µM; in experiment [5], 0.05 to 5 mM. In addition, the values for the IC50 (in experiment [6]; with BHK-21 cells; in experiment [7]) were 0.05 to 5 mM, 0.05 to 5 mM and 1 to 10 µM, respectively.

Regarding `COc1cccc(Cn2c3c(c(=O)c4ccccc42)C(=O)n2cccc2-3)c1` [Compound 610a, 4-(3-Methoxybenzyl)-9H-pyrrolizino[1,2-b]quinoline-9,10(4H)-dione], the IC50 is 0.05 to 5 mM in experiment [1]; 0.05 to 5 mM in experiment [2]; 0.05 to 5 mM in experiment [3]; 0.05 to 5 mM in experiment [4]; 1 to 10 µM with NF-κB; 0.05 to 5 mM in [5]. Besides, the IC50 in experiment [6] was 0.05 to 5 mM; with BHK-21 cells, 0.05 to 5 mM; in experiment [7] it was 1 to 10 µM.

Turning to `COc1cccc(COc2c3c(nc4ccccc24)-c2cccn2C3=O)c1` [Compound 610b, 9-((3-methoxybenzyl)oxy)-10H-pyrrolizino[1,2-b]quinolin-10-one], the IC50 in experiment [1] was 0.05 to 5 mM; in experiment [2], 0.05 to 5 mM; in [3], 0.05 to 5 mM; in [4], 0.05 to 5 mM; with NF-κB, 1 to 10 µM; in experiment [5], 0.05 to 5 mM. In addition, the IC50 lay in the range of 0.05 to 5 mM in experiment [6], 0.05 to 5 mM in the experiment with BHK-21 cells and 1 to 10 µM in experiment [7].

As for `O=C1c2c(n(Cc3cc(C(F)(F)F)ccc3Cl)c3ccccc3c2=O)-c2cccn21` [Compound 611a, 4-(2-Chloro-5-(trifluoromethyl)benzyl)-9H-pyrrolizino[1,2-b]quinoline-9,10(4H)-dione], the IC50 in [1] was 0.05 to 5 mM; in experiment [2] it was 0.05 to 5 mM; in [3] it was 0.05 to 5 mM; in experiment [4] it was 0.05 to 5 mM; in the experiment on NF-κB, 0.1 to 1 µM; in [5], 0.05 to 5 mM. Also, the results for the IC50 (in [6]; with BHK-21 cells; in experiment [7]) were 0.05 to 5 mM, 0.05 to 5 mM and 10 to 50 µM, respectively.

`O=C1c2c(nc3ccccc3c2OCc2cc(C(F)(F)F)ccc2Cl)-c2cccn21` [Compound 611b, 9-((2-chloro-5-(trifluoromethyl)benzyl)oxy)-10H-pyrrolizino[1,2-b]quinolin-10-one]: the IC50 is 0.05 to 5 mM in experiment [1]; 0.05 to 5 mM in experiment [2]; 0.05 to 5 mM in experiment [3]; 0.05 to 5 mM in experiment [4]; 1 to 10 µM in the experiment with NF-κB; 0.05 to 5 mM in [5]. Besides, the IC50 in [6] lay within 0.05 to 5 mM; in the experiment on BHK-21 cells, 0.05 to 5 mM; in experiment [7], 10 to 50 µM.

As to `O=C1c2c(n(Cc3ccccc3Br)c3ccccc3c2=O)-c2cccn21` [Compound 612a, 4-(2-Bromobenzyl)-9H-pyrrolizino[1,2-b]quinoline-9,10(4H)-dione], the IC50 was 0.05 to 5 mM in experiment [1]; 0.05 to 5 mM in [2]; 0.05 to 5 mM in experiment [3]; 0.05 to 5 mM in experiment [4]; 1 to 10 µM in the experiment with NF-κB; 0.05 to 5 mM in experiment [5]. Moreover, the IC50 lay in the range of 0.05 to 5 mM in experiment [6], 0.05 to 5 mM in the experiment with BHK-21 cells and 10 to 50 µM in experiment [7].

Turning to `O=C1c2c(nc3ccccc3c2OCc2ccccc2Br)-c2cccn21` [Compound 612b, 9-((2-bromobenzyl)oxy)-10H-pyrrolizino[1,2-b]quinolin-10-one], the IC50 in [1] lay within 0.05 to 5 mM; in experiment [2], 0.05 to 5 mM; in experiment [3] it was 0.05 to 5 mM; in experiment [4] it was 0.05 to 5 mM; in the experiment with NF-κB, 1 to 10 µM; in experiment [5], 0.05 to 5 mM. Also, the IC50 in [6] is 0.05 to 5 mM; in the experiment with BHK-21 cells, 0.05 to 5 mM; in experiment [7] it was 10 to 50 µM.

As to `O=C1c2c(n(Cc3ccc(Cl)c(Cl)c3)c3ccccc3c2=O)-c2cccn21` [Compound 613a, 4-(3,4-Dichlorobenzyl)-9H-pyrrolizino[1,2-b]quinoline-9,10(4H)-dione], the IC50 in experiment [1] lay in the range of 0.05 to 5 mM; in [2], 0.05 to 5 mM; in [3] it was 0.05 to 5 mM; in experiment [4], 0.05 to 5 mM; in the experiment with NF-κB, 1 to 10 µM; in [5] it was 0.05 to 5 mM. The IC50 in [6] is 0.05 to 5 mM; in the experiment on BHK-21 cells, less than 0.05 mM; in experiment [7], 10 to 50 µM.

As to `O=C1c2c(nc3ccccc3c2OCc2ccc(Cl)c(Cl)c2)-c2cccn21` [Compound 613b, 9-((3,4-dichlorobenzyl)oxy)-10H-pyrrolizino[1,2-b]quinolin-10-one], the IC50 in experiment [1] lay in the range of 0.05 to 5 mM; in experiment [2] it was 0.05 to 5 mM; in experiment [3] it was 0.05 to 5 mM; in experiment [4], 0.05 to 5 mM; with NF-κB it was 1 to 10 µM; in [5], 0.05 to 5 mM. Moreover, the IC50 in [6] fell in the range of 0.05 to 5 mM; with BHK-21 cells, 0.05 to 5 mM; in experiment [7], 10 to 50 µM.

For the origin of these results see patent US11040028B2, “Penicinotam derivative, preparation method and use thereof” (OCEAN UNIVERSITY OF CHINA, priority 2017, dated 2021).
